The subject of experiment [1] is peripheral blood mononuclear cells (PBMCs). The experiment is described as follows: IL-1β and IL-18 expression in LPS and ATP treated peripheral blood mononuclear cells. It counts as cell-based, C57BL/6 male mice. The following applies: LPS 200 ng/mL and ATP, β-lapachone 0.5, 1, 2 μM, 4 hours. The protocol:
Considering that inflammatory cytokines mediate the pathogenic mechanism of cholestatic liver disease, the peripheral blood mononuclear cell model was used by a modified method of Boyum et al. (1968). Peripheral blood mononuclear cells isolated from healthy 8-week-old C57BL/6 male mice (Samtako, Korea) were maintained by primary culture in RPMI-1640 medium containing 10% FBS, 2 mM glutamine, 100 U penicillin, and 0.1 mg/ml streptomycin. Stable peripheral blood mononuclear cells (PBMCs) were treated with LPS at 200 ng/mL and ATP and β-lapachone at 0, 0.5, 1, 2 μM in the medium and, after 4 hours, the expression levels of IL-1β and IL-18 were investigated, and the results are shown in FIG. 15.

The test system of experiment [2] is DDC-induced cholestatic liver disease mice. The experiment is described as follows: Treatment effect in cholestatic liver disease-induced mice (DDC 3 days, then treatment 4 days). It counts as in vivo, C57BL/6 male mice. The protocol:
The treatment effect of β-lapachone in cholestatic liver disease-induced mouse animals were investigated. After 8-week-old C57BL/6 male mice (Samtako, Korea) were divided into each group (=6), each group excluding a control group was fed a diet containing 0.1% DDC for 3 days. Thereafter, the mice were fed a diet with DDC control (vehicle), DDC-+β-lapachone 20 mg/kg, DDC-+β-lapachone 40 mg/kg, DDC-+β-lapachone 80 mg/kg, and positive control DDC+obeticholic acid 30 mg/kg for 4 days (total 7 days). After 7 days of feeding, the mice were sacrificed and then the blood was collected from the heart.

For experiment [3], the system named is Poly I:C-induced cholestatic liver disease animal models. The experiment is described as follows: Treatment effect in Poly I:C-induced primary biliary cirrhosis (PBC) mouse animal models. Format: in vivo, C57BL/6 male mice. The protocol:
Of cholestatic liver diseases, primary biliary cirrhosis (PBC) may be introduced to a similar state by using a viral RNA mimic and the Toll-like receptor polyinosinic-polycytidylic acid (Poly I:C). After 8-week-old C57BL/6 male mice (Samtako, Korea) were divided into each group (=6), each experimental group excluding a normal group was intraperitoneally administered 5 mg/kg Poly I:C twice a week for 8 weeks. Thereafter, the mice were fed a diet with control (vehicle), β-lapachone 40 mg/kg, β-lapachone 80 mg/kg, and positive control ursodeoxycholic acid 100 mg/kg and obeticholic acid 30 mg/kg for 8 weeks. On the 16th week of treatment, the experiment was ended, and the mice were sacrificed and then the blood was collected from the heart.

Experiment [4] has as its system DDC-induced cholestatic liver disease mice. The experiment is described as follows: Preventive effect in DDC-induced cholestatic liver disease mouse animal models (β-lapachone given 3 days before DDC). Format: in vivo, C57BL/6 male mice. The protocol:
DDC-induced cholestatic liver disease mouse animal models were prepared according to the method of Elisa Pose et al. by using 8-week-old C57BL/6 male mice (Samtako, Korea). Briefly, cholestatic liver disease was induced by feeding a standard rodent diet supplemented with 0.1% (w/w) DDC for 7 or 14 days. The 12-hour light and dark cycle was maintained and animals were allowed to free access to water. The standard rodent diet included medium wheat, wheat, corn, and corn gluten flour, and soybean oil (14% protein). All animal related procedures were reviewed and approved by the Institutional Animal Care and Use Committee of Korea Research Institute of Bioscience and Biotechnology (KRIBB), KRIBB-AEC-20165). The tissue staining of the cholestatic liver disease animal models was measured through H&E staining (basic tissue staining), Sirius Red staining (collagen staining), and Masson's trichrome staining (collagen, cytoplasm, muscle fibers, etc.), and the tissue staining was measured by a skilled researcher. To investigate the preventive effect of β-Lapachone (BL) on cholestatic liver disease, the mice were fed a diet with 0 (DDC-vehicle), 40 mg/kg (DDC-BL40) and 80 mg/kg (DDC-BL80) 3 days before DDC treatment (total 17 days) and, after 3 days, were fed a diet with DDC (total 14 days). After 14 days of DDC treatment, the mice were sacrificed and the liver was harvested including the portal vein (PV) and bile ducts of the mice, and the surrounding lesions were confirmed by H&E, and are shown in FIG. 1. The liver harvested in Example 2.1 was investigated for tissues or connective tissues around cells through Sirius Red and Masson's trichrome staining, which are shown in FIG. 2A. The expression of the factors in the liver tissue obtained from the cholestatic liver disease mouse animal models of Example 2.1 was performed by a real-time polymerase chain reaction was performed according to the following procedure. Total RNA from liver samples was extracted using Tri-RNA Reagent (Favrogen BIOTECH CORP, Nong-Ke Rd, Taiwan) according to the procedure presented by Favrogen, and was reverse transcribed into cDNA by using PrimeScript™ RT reagent Kit with gDNA Eraser (TAKARA Korea Biomedical Inc, Seoul, 08506, Korea). Quantitative PCR was performed using TB Green™ Premix Ex Tag™ II (Tli RNaseH Plus), ROX plus (TAKARA Korea Biomedical Inc, Seoul, 08506, Korea) and QuantStudio 5 Real-Time PCR Instrument (Thermo Fisher Scientific, Waltham, MA, USA).

[5] abbreviates: 0.1% DDC 3 days, then DDC + β-lapachone 20, 40, 80 mg/kg in diet 4 days, depending on the concentration.
The mark [6] stands for this setting: Poly I:C 5 mg/kg i.p. 8 weeks, then β-lapachone 40, 80 mg/kg in diet 8 weeks.
Setting [7] is: liver mRNA, DDC-BL40 and DDC-BL80 vs DDC-vehicle.

In the case of `CC1(C)CCC2=C(O1)c1ccccc1C(=O)C2=O` [β-lapachone], in experiment [1], the “expression level of IL-1β increased by LPS and ATP” value is recorded as “reduced depending on the concentration”; the “expression level of IL-18 increased by LPS and ATP” value is “reduced depending on the concentration”. In experiment [2] (setting [5]), the “ALP in the blood” value was “inhibited” and the “bilirubin in the blood” value was “inhibited”. Also, in experiment [2] (vs ursodeoxycholic acid (UDCA) and obeticholic acid (OCA)), the “effect on blood indexes (bilirubin, ALP) compared with positive controls” value is “excellent effect compared with ursodeoxycholic acid (UDCA) and obeticholic acid (OCA)”. Besides, in experiment [3] (setting [6]), the “ALP in the blood” value is listed as “inhibited”, the “ALT in the blood” value is on record as “inhibited” and the “AST in the blood” value is reported as “inhibited”. Further, in experiment [3] (vs ursodeoxycholic acid 100 mg/kg and obeticholic acid 30 mg/kg), the “effect on blood indexes (AST, ALT, ALP) compared with comparative substances” value was “excellent effect compared with the comparative substances ursodeoxycholic acid (UDCA) and obeticholic acid (OCA)”. In addition, in experiment [4] (DDC-BL40 and DDC-BL80 (40 and 80 mg/kg in diet, 17 days; DDC 14 days) compared with DDC-vehicle, concentration dependent), the “lesions around the portal vein (PV) and bile ducts (H&E)” value is given as “significant lesion reductions”. In experiment [4] (setting [7]), the “transcriptional level of Col1α1” value was “significantly reduced”, the “transcriptional level of Col4α1” value was “significantly reduced”, the “transcriptional level of TGF-β1” value is recorded as “significantly reduced” and the “transcriptional level of fibronectin” value is on record as “significantly reduced”. In addition, the “transcriptional level of α-SMA” value in experiment [4] (setting [7]) is given as “significantly reduced”. Also, in experiment [4] (liver of DDC mice treated with β-lapachone 40 and 80 mg/kg vs DDC-vehicle), the “formation of connective tissues (Sirius Red and Masson's trichrome staining)” value is recorded as “inhibited such fibrosis progression”.

The record behind these values is patent US12128023B2, “Pharmaceutical composition containing B-lapachone as active ingredient for prevention or treatment of cholestatic liver disease” (CUROME BIOSCIENCES CO., LTD., priority 2020, dated 2024).
